From paper PMC6690930, “Characterization and its implication of a novel taste receptor detecting nutrients in the honey bee, Apis mellifera” (Scientific Reports, 2019)

Assays:
AmGr1 = test system: AmGr1; set-up: method as in earlier work; details: cited from earlier work
[1] = test system: sensilla chaetica on the galea; assay: Tip recording from galeal sensilla chaetica of honey bee; format: in vivo, Apis mellifera; details: for Responses during 1 sec of stimulation: sensilla chaetica on the galea; for Threshold concentration necessary for tip recording: honey bee mouthparts in vivo; for Response of sensilla chaetica on the galea (in words): tip recording
Text: Tip recording® experiments were amplified and recorded from the left galea of the proboscis in honey bee mouthparts with IDAC4 with Autospikes software (Syntech, Hilversum, The Netherlands). Bees were immobilized by cooling on ice, restrained in a pipette tip, holding head and appendages in place for electrophysiological measurements. Recordings from gustatory sensilla in galea were made from so-called sensilla chaetica[81] at the tip of galea devoid of olfactory sensilla. These sensilla can be easily identified by their external morphology. A grounded reference electrode filled with 1 mM KCl was inserted into the compound eye. L-glutamate and L-aspartate were selected for tip recording testing and are common amino acids in plant pollen. For stimulation, 1 mM KCl with […] concentrations of 100 mM and 1 mM KCl alone were used. Stimuli were applied for approximately 5 s with an inter-stimulus interval of 3 min. […] These sensilla were excluded from the data analysis. The responses of galeal sensilla to all tested solutions were quantified by counting the number of spikes after stimulus onset.

AmGr10 [2] = biological target: T1, AmGr10 (Apis mellifera, UniProt A0A7M6W8K8); assay: Calcium imaging of HEK 293 cells expressing AmGr10; format: cell-based; details: for Real time calcium imaging response: 50 μm amino acid alone, Videos S1, S2; for Real time calcium imaging response with IMP: 50 μm amino acid with 2 μm of IMP, Videos S3, S4
T1 sequence (A0A7M6W8K8 entry or part of it): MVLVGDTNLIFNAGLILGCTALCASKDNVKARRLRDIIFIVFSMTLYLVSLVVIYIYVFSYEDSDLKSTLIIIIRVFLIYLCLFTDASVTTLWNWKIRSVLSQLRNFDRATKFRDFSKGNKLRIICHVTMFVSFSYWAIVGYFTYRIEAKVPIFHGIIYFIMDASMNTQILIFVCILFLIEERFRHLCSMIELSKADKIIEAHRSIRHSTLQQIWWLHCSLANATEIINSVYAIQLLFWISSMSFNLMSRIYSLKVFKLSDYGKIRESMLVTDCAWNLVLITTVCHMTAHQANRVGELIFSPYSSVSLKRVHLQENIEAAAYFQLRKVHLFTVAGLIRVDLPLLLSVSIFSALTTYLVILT
Protocol: (§1) The expression vector was synthesized by inserting the cDNA of AmGr10 (Apis mellifera Gustatory receptor 10) into the multiple cloning site of the pcDNA3.1 vector using the restriction enzymes EcoRI and NotI (Koscamco, Anyang, Korea). Template pDNA for pcDNA3.1-AmGr10 and primers were then mixed with kit solutions. The total PCR volume and conditions were followed as described previously. 2.5 µg of the vector with AmGr10 was transfected into the HEK 293 cells using Lipofectamine 2000 (Invitrogen, CA, USA). The transfection method was according to the manufacturer’s manual. In brief, the Opti-MEM (Invitrogen, CA, USA) was mixed with Lipofectamine at the rate of 6 μL in 125 μL Opti-MEM. It was incubated for 5 min at room temperature. The plasmid DNA (2.5 μg) also was blended with 125 μL Opti-MEM media. These were combined and incubated for 20 min at room temperature. The solution was applied on the HEK cells. After 24 h, the transfected cells were selected using 200 µg/ml zeocin.
Transfected cell lines were subsequently cultured on dishes suitable for confocal microscopy (SPL, Pocheon, Korea). Before each experiment, the culture medium was removed and washed once in Hansk’s balanced salt solution (assay buffer). Transfected cells were loaded with calcium dye Fluo-4 AM (Molecular probes, USA), 2 μM in assay buffer to the dish, after which the cells were incubated in the dark for 90 min at room temperature. After incubation, 1X HBSS buffer was added to the confocal dish, which was then directly placed in the LSM700 inverted confocal microscope for observation (Zeiss, Oberkochen, Germany). Images were captured with a maximum of 100 frames per two-second interval. Test chemicals were dissolved in HBSS at various concentrations. Calcium influx into the transfected cells upon ligand binding was monitored and analyzed with ZEN software (Zeiss, Oberkochen, Germany). For data analysis, response refers to the number of cells responding in a field of about 300 transfected cells. Cells were counted as responders if the F ratio increased above 0.27 after addition of tastants.

hT1R1/hT1R3 = details: cited from earlier work
AmGr10 [3] = biological target: T1, AmGr10; assay: Two-electrode voltage-clamp recording of Xenopus oocytes expressing AmGr10; format: cell-based; details: for Response of oocytes injected with AmGr10 cRNA (in words): holding potential -70 mV; for Threshold concentration on Xenopus oocytes expressed AmGr10: in vitro
Protocol: Full-length coding sequences of the AmGr10 cDNA were first cloned into pGEM-T easy vector (Promega, Madison, USA) and then subcloned into the pSDTF vector. In vitro transcription of cRNA was performed by using the mMESSAGE mMACHINE SP6 Kit (Ambion, Austin, TX, USA) according to the manufacturer’s protocol. Plasmids were linearized with EcoR1, and capped cRNA was transcribed using SP6 RNA polymerase. The cRNA was purified, resuspended in nuclease-free water at a concentration of 1 μg/μl, and stored at −80 °C in aliquots. Mature oocytes were freed from the follicle cells by treatment with collagenase A for 1 h at room temperature and incubated for 24 hours in modified Barth’s solution[16]. […] The oocytes were then incubated at 17 °C for 3~5 days in Barth’s solution. The two-electrode voltage-clamp technique was employed to observe tastant-induced currents at a holding potential of −70 mV.

human = test system: human; set-up: method as in PMID 24214976; details: at high concentrations; cited from earlier work
AmGr10 [4] = biological target: T1, AmGr10; assay: Intracellular calcium assay (Fluo-4) in HEK 293 cells expressing AmGr10; format: cell-based; details: for Response of HEK 293 cells expressing AmGr10 (in words): 100 mM of amino acid
Protocol: as §1
For calcium signaling assays, HEK 293 cells expressing AmGr10 were cultured for more than 3 days, and the Fluo-4 AM dye mix solution (Molecular probes) was loaded into the cell in 96-well microplate. […] To normalize the response, the changes in the fluorescence ratio were divided by the maximal fluorescence changes induced by each compound.

[5] = test system: non-transfected HEK 293 cells; assay: Calcium imaging of non-transfected HEK 293 cells (control); format: cell-based; details: Fig. S6
Protocol: Test chemicals were dissolved in HBSS at various concentrations.

AmGr3 = test system: AmGr3; set-up: method as in PMID 28403157, PMID 29194737; details: cited from earlier work

## OC[C@H]1O[C@H](O[C@H]2[C@H](O)[C@@H](O)C(O)O[C@@H]2CO)[C@H](O)[C@@H](O)[C@@H]1O (mixture of isomers) [maltose]
AmGr1
  Response of AmGr1: responded

## Nc1nc2c(ncn2[C@@H]2O[C@H](COP(=O)(O)O)[C@@H](O)[C@H]2O)c(=O)[nH]1 [GMP, Guanosine 5′-monophosphate]
[1]; 2 mM GMP
  Effect of GMP on responses to non-amino acid stimulus sucrose: no significant effect
[1]; 2 mM GMP, 50 mM amino acids
  Effect of GMP on nerve-firing rates to amino acids: significantly enhanced

## NC(CCP(=O)(O)O)C(=O)O [L-AP4]
AmGr10 [2]; amino acids 50 mM, IMP 2 mM
  AmGr10 response in presence of purine nucleotides: greatly enhanced

## C[C@H](N)C(=O)O [L-Ala]
hT1R1/hT1R3
  Response of hT1R1/hT1R3: slight but significant responses

## N=C(N)NCCC[C@H](N)C(=O)O [L-arginine, L-Arginine]
hT1R1/hT1R3
  Response of hT1R1/hT1R3: slight but significant responses
AmGr10 [3]
  Response of oocytes injected with AmGr10 cRNA (in words): responsive
human
  Umami taste in human sensory tests: weak umami taste
AmGr10 [4]
  Response of HEK 293 cells expressing AmGr10 (in words): significant responses

## NC(=O)C[C@H](N)C(=O)O [L-asparagine, L-Asparagine]
hT1R1/hT1R3
  Response of hT1R1/hT1R3: slight but significant responses
AmGr10 [3]
  Response of oocytes injected with AmGr10 cRNA (in words): responsive
human
  Umami taste in human sensory tests: weak umami taste
AmGr10 [4]
  Response of HEK 293 cells expressing AmGr10 (in words): significant responses

## N[C@@H](CC(=O)O)C(=O)O [L-aspartate, L-Aspartic acid]
[1]; 100 mM
  Responses during 1 sec of stimulation: 22 spikes
[1]; 200 mM
  Responses during 1 sec of stimulation: 51 spikes
[1]; concentration of 50 mM
  Responses during 1 sec of stimulation: 6 spikes
[1]
  Threshold concentration necessary for tip recording: ~ 50 mM
  Response of sensilla chaetica on the galea (in words): responded
AmGr10 [3]
  Response of oocytes injected with AmGr10 cRNA (in words): responsive
  Threshold concentration on Xenopus oocytes expressed AmGr10: ~ 10 mM
AmGr10 [2]
  Real time calcium imaging response: clearly showed calcium responses
  Real time calcium imaging response with IMP: clearly showed enhanced response
AmGr10 [4]
  Response of HEK 293 cells expressing AmGr10 (in words): highest responses

## N[C@@H](CCC(=O)O)C(=O)O [L-glutamate, L-Glutamic acid]
[1]; 100 mM
  Responses during 1 sec of stimulation: 27 spikes
[1]; 200 mM
  Responses during 1 sec of stimulation: 55 spikes
[1]; concentration of 50 mM
  Responses during 1 sec of stimulation: 15 spikes
[1]
  Threshold concentration necessary for tip recording: ~ 50 mM
  Response of sensilla chaetica on the galea (in words): responded
AmGr10 [3]
  Response of oocytes injected with AmGr10 cRNA (in words): responsive
  Threshold concentration on Xenopus oocytes expressed AmGr10: ~ 10 mM
AmGr10 [2]
  Real time calcium imaging response: clearly showed calcium responses
  Real time calcium imaging response with IMP: clearly showed enhanced response
AmGr10 [4]
  Response of HEK 293 cells expressing AmGr10 (in words): highest responses

## NC(=O)CC[C@H](N)C(=O)O [L-glutamine, L-Glutamine]
hT1R1/hT1R3
  Response of hT1R1/hT1R3: slight but significant responses
AmGr10 [3]
  Response of oocytes injected with AmGr10 cRNA (in words): responsive
human
  Umami taste in human sensory tests: weak umami taste
AmGr10 [4]
  Response of HEK 293 cells expressing AmGr10 (in words): significant responses

## N[C@@H](Cc1c[nH]cn1)C(=O)O [L-histidine, L-Histidine]
hT1R1/hT1R3
  Response of hT1R1/hT1R3: slight but significant responses

## NCCCC[C@H](N)C(=O)O [L-lysine, L-Lysine]
AmGr10 [3]
  Response of oocytes injected with AmGr10 cRNA (in words): responsive
AmGr10 [4]
  Response of HEK 293 cells expressing AmGr10 (in words): significant responses

## N[C@@H](CO)C(=O)O [L-serine, L-Serine]
hT1R1/hT1R3
  Response of hT1R1/hT1R3: slight but significant responses

## N[C@@H](CCC(=O)O)C(=O)[O-].[Na+] [MSG, L-Glutamic acid monosodium salt]
hT1R1/hT1R3; unlike non-transfected HEK 293 cells
  Sensitivity of HEK 293 cells expressing hT1R1/hT1R3: significantly sensitive
AmGr10 [4]; concentration steps, Fig. S5
  Response to MSG of AmGr10-transfected HEK 293 cells vs non-transfected: significantly increased

## Cn1c(=O)c2c(ncn2C)n(C)c1=O [caffeine]
AmGr10 [3]
  Response of oocytes injected with AmGr10 cRNA (in words): not

## CNc1ccc2oc(C[C@@H]3OC4(CC[C@@H]3C)O[C@H](C(C)C(=O)c3ccc[nH]3)[C@H](C)C[C@H]4C)nc2c1C(=O)O (stereo partly drawn) [calcium ionophore]
[5]
  Calcium influx in non-transfected HEK 293 cells: activated

## O=C(CO)[C@@H](O)[C@H](O)[C@H](O)CO [fructose]
AmGr3
  Response of AmGr3: responds only
AmGr1
  Response of AmGr1: not

## OC[C@H]1OC(O)[C@H](O)[C@@H](O)[C@@H]1O (stereo partly drawn) [glucose]
AmGr1
  Response of AmGr1: responded

## OC[C@H]1O[C@@](CO)(O[C@H]2O[C@H](CO)[C@@H](O)[C@H](O)[C@H]2O)[C@@H](O)[C@@H]1O [sucrose, Sucrose]
[1]
  Response of sensilla chaetica on the galea (in words): sensitive
AmGr1
  Response of AmGr1: responded

## OC[C@H]1O[C@H](O[C@H]2O[C@H](CO)[C@@H](O)[C@H](O)[C@H]2O)[C@H](O)[C@@H](O)[C@@H]1O [trehalose]
AmGr1
  Response of AmGr1: responded
